Article PMC9118553, “In Vivo Bioconcentration of 10 Anionic Surfactants in Rainbow Trout Explained by In Vitro Data on Partitioning and S9 Clearance” (Environmental Science & Technology, 2022)
Where two headings read alike, the source gives them in different places.

How the values were obtained:
[1] = ref REACH dossier; cited from earlier work
rainbow trout = rainbow trout carcass; cited from earlier work
[2] = In vivo bioconcentration experiment with a mixture of anionic surfactants, flow-through aquaria, 10 °C, pH 7.8; set-up: species or system rainbow trout; conditions: rainbow trout, whole fish homogenate, other: waterborne exposure in flow-through aquaria; for k el: read-out: Elimination rate constant kT (converted)
Procedure, shortened: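 Juvenile rainbow trout exposed to a 10-surfactant mixture for 4 days, then 7-day depuration, in flow-through aquaria at 10 °C, pH 7.8. Whole-fish homogenates and water analysed by LC-MS/MS against BEHP internal standard. kU, kT and BCF (=kU/kT) estimated by joint Bayesian model including water-concentration uncertainty.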

CCCCC(CC)COC(=O)CC(C(=O)OCC(CC)CCCC)S(=O)(=O)O (stereo not shown) [DOSS, bis(2-ethylhexyl)sulfosuccinate]
Degradation information ~28d-sludge test (% degradable) [1]: 91.2-100% | BCF (rainbow trout): 3.78 L kg^–1 | k el ([2]; 26 μg L^–1, pH 7.8, determined using nominal concentrations in water): 1.56e-05 s⁻¹ | concentration at 97 h ([2]; 26 μg L^–1, pH 7.8, elimination phase, 97 h, individual fish): 57 ng/g | concentration at 98 h ([2]; 26 μg L^–1, pH 7.8, elimination phase, 98 h, individual fish): 47 ng/g | concentration at 103 h ([2]; 26 μg L^–1, pH 7.8, elimination phase, 103 h, individual fish): 35 ng/g | concentration at 128 h ([2]; 26 μg L^–1, pH 7.8, elimination phase, 128 h, individual fish): 13.9 ng/g | concentration at 2 h ([2]; 26 μg L^–1, pH 7.8, exposure phase, 2 h, individual fish): 8.5 ng/g | concentration at 3 h ([2]; 26 μg L^–1, pH 7.8, exposure phase, 3 h, individual fish): 14.9 ng/g | concentration at 6 h ([2]; 26 μg L^–1, pH 7.8, exposure phase, 6 h, individual fish): 36 ng/g | concentration at 24 h ([2]; 26 μg L^–1, pH 7.8, exposure phase, 24 h, individual fish): 66 ng/g | concentration at 48 h ([2]; 26 μg L^–1, pH 7.8, exposure phase, 48 h, individual fish): 48 ng/g | concentration at 72 h ([2]; 26 μg L^–1, pH 7.8, exposure phase, 72 h, individual fish): 50 ng/g | concentration at 96 h ([2]; 26 μg L^–1, pH 7.8, exposure phase, 96 h, individual fish): 84 ng/g | k el ([2]; 26 μg L^–1, pH 7.8, from measured concentrations in water, Bayesian estimate, 95% credible interval in brackets): 1.75e-05 s⁻¹ | k el ([2]; pH 7.8, measured concentrations in water, simpler estimation method (Text S3), 95% confidence intervals in brackets): 1.78e-05 s⁻¹
